According to PubChem BioAssay AID330 (DTP/NCI, 2004):
Where “and” joins values, the source holds several entries; their conditions need not be identical. Equal entries are not always repeated. Toxic doses and inconclusive results are not listed. How the source made its calls: active means survival T/C of 150% or more; inactive means T/C below 125% in these data.

Test system: P388 leukemia ip, CD2F1 mice, survival T/C
Experiment: NCI In Vivo Anticancer Drug Screen. Data for tumor model P388 Leukemia (intraperitoneal) in CD2F1 (CDF1) mice
Details: endpoint: median survival time, higher = longer survival
In short: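 Mice carrying the transplanted tumor received test compound or vehicle. Survival was recorded in each group, and the value is the treated-group measurement divided by that of the vehicle-treated control group.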

[1] = dose: 60.0 mg/kg/injection, schedule: Q01DX005 (ip), vehicle: saline
[2] = dose: 50.0 mg/kg/injection, schedule: Q01DX005 (ip), vehicle: saline with Tween-80
[3] = dose: 100.0 mg/kg/injection, schedule: Q01DX005 (ip), vehicle: saline with Tween-80
[4] = dose: 200.0 mg/kg/injection, schedule: Q01DX005 (ip), vehicle: saline with Tween-80
[5] = dose: 100.0 mg/kg/injection, schedule: Q01DX009 (ip), vehicle: Klucel (hydroxypropylcellulose) (HPC)
[6] = dose: 200.0 mg/kg/injection, schedule: Q01DX009 (ip), vehicle: Klucel (hydroxypropylcellulose) (HPC)
[7] = dose: 50.0 mg/kg/injection, schedule: Q01DX009 (ip), vehicle: saline with Tween-80
[8] = dose: 100.0 mg/kg/injection, schedule: Q01DX009 (ip), vehicle: saline with Tween-80
[9] = dose: 60.0 mg/kg/injection, schedule: Q01DX005 (ip), vehicle: saline with Tween-80
[10] = dose: 120.0 mg/kg/injection, schedule: Q01DX005 (ip), vehicle: saline with Tween-80
[11] = dose: 240.0 mg/kg/injection, schedule: Q01DX005 (ip), vehicle: saline with Tween-80
[12] = dose: 25.0 mg/kg/injection, schedule: Q01DX009 (ip), vehicle: saline with Tween-80
[13] = dose: 100.0 mg/kg/injection, schedule: Q04DX003 (ip), vehicle: saline with Tween-80
[14] = dose: 200.0 mg/kg/injection, schedule: Q04DX003 (ip), vehicle: saline with Tween-80
[15] = dose: 400.0 mg/kg/injection, schedule: Q04DX003 (ip), vehicle: saline with Tween-80
[16] = dose: 100.0 mg/kg/injection, schedule: Q04DX002 (ip), vehicle: saline with Tween-80

Measured: T/C

CCCCCc1cc(O)c2c(c1)OC(C)(C)[C@@H]1CCC(C)=C[C@@H]21
inactive: dose: 1.0 mg/kg/injection, schedule: Q01DX005 (iv), vehicle: other 100 % of control | dose: 1.5 mg/kg/injection, schedule: Q02HX016 (oral), vehicle: olive oil, sesame oil, peanut oil 92 % of control | dose: 2.0 mg/kg/injection, schedule: Q01DX005 (iv), vehicle: other 100 % of control | dose: 3.0 mg/kg/injection, schedule: Q02HX016 (oral), vehicle: olive oil, sesame oil, peanut oil 92 % of control | dose: 4.0 mg/kg/injection, schedule: Q01DX005 (iv), vehicle: other 100 % of control | dose: 8.0 mg/kg/injection, schedule: Q01DX005 (iv), vehicle: other 92 % of control | dose: 16.0 mg/kg/injection, schedule: Q01DX005 (iv), vehicle: other 100 % of control | dose: 32.0 mg/kg/injection, schedule: Q01DX005 (iv), vehicle: other 109 % of control and 96 % of control | dose: 64.0 mg/kg/injection, schedule: Q01DX005 (iv), vehicle: other 99 % of control and 100 % of control | dose: 128.0 mg/kg/injection, schedule: Q01DX005 (iv), vehicle: other 99 % of control | dose: 256.0 mg/kg/injection, schedule: Q01DX005 (iv), vehicle: other 99 % of control

COC(=O)C1(CC(=O)c2ccc(OC)cc2)NC(=S)NC(=O)C1C#N (stereo unspecified)
inactive: [1] 100 % of control | dose: 120.0 mg/kg/injection, schedule: Q01DX005 (ip), vehicle: saline 98 % of control | dose: 240.0 mg/kg/injection, schedule: Q01DX005 (ip), vehicle: saline 86 % of control

[N-]=[N+]=CC(=O)C1OC1c1ccc(Br)cc1 (stereo unspecified)
inactive: dose: 25.0 mg/kg/injection, schedule: Q01DX005 (ip), vehicle: saline with Tween-80 98 % of control | [2] 93 % of control | [3] 91 % of control | [4] 95 % of control

Cc1c(N2CCCC2)cc2c(c1-n1cccc1)C(C)(C)CC2(C)C
inactive: dose: 50.0 mg/kg/injection, schedule: Q01DX009 (ip), vehicle: Klucel (hydroxypropylcellulose) (HPC) 102 % of control | [5] 96 % of control | [6] 96 % of control

COc1ccccc1/C=C/C(=O)c1ccccc1
inactive: [7] 96 % of control | [8] 94 % of control | dose: 200.0 mg/kg/injection, schedule: Q01DX009 (ip), vehicle: saline with Tween-80 96 % of control

N#C/C(=C/c1cccs1)c1cccs1
inactive: [9] 100 % of control | [10] 106 % of control | [11] 109 % of control

CN(C)CN1CSC(=S)N(CN(C)C)C1
inactive: dose: 50.0 mg/kg/injection, schedule: Q01DX005 (ip), vehicle: distilled water + alcohol 103 % of control | dose: 100.0 mg/kg/injection, schedule: Q01DX005 (ip), vehicle: distilled water + alcohol 116 % of control | dose: 200.0 mg/kg/injection, schedule: Q01DX005 (ip), vehicle: distilled water + alcohol 103 % of control

NCC(=O)OCN1C(=O)C2C3C=CC(C2C1=O)C1C2C(=O)N(COC(=O)CN)C(=O)C2C31 (stereo unspecified)
active: dose: 103.0 mg/kg/injection, schedule: Q01DX009 (ip), vehicle: water 203 % of control | dose: 400.0 mg/kg/injection, schedule: Q01DX009 (ip), vehicle: water 173 % of control
inactive: dose: 6.25 mg/kg/injection, schedule: Q01DX009 (ip), vehicle: water 109 % of control | dose: 12.5 mg/kg/injection, schedule: Q01DX009 (ip), vehicle: water 104 % of control | dose: 25.0 mg/kg/injection, schedule: Q01DX009 (ip), vehicle: water 104 % of control and 109 % of control | dose: 25.75 mg/kg/injection, schedule: Q01DX009 (ip), vehicle: water 112 % of control | dose: 50.0 mg/kg/injection, schedule: Q01DX009 (ip), vehicle: water 99 % of control and 115 % of control and 116 % of control | dose: 51.5 mg/kg/injection, schedule: Q01DX009 (ip), vehicle: water 121 % of control | dose: 100.0 mg/kg/injection, schedule: Q01DX009 (ip), vehicle: water 118 % of control | dose: 200.0 mg/kg/injection, schedule: Q01DX009 (ip), vehicle: water 91 % of control

CC(=O)c1ccc2c(c1)NC(=O)CC(C)N2 (stereo unspecified)
inactive: dose: 50.0 mg/kg/injection, schedule: Q01DX005 (ip), vehicle: Klucel (hydroxypropylcellulose) (HPC) 99 % of control | dose: 100.0 mg/kg/injection, schedule: Q01DX005 (ip), vehicle: Klucel (hydroxypropylcellulose) (HPC) 99 % of control | dose: 200.0 mg/kg/injection, schedule: Q01DX005 (ip), vehicle: Klucel (hydroxypropylcellulose) (HPC) 103 % of control

CCc1ccc(-c2cc(-c3ccc(CC)cc3)cc(-c3ccc(CC)cc3)c2)cc1
inactive: [9] 100 % of control | [3] 94 % of control | [4] 91 % of control

Nc1nc2[nH]c(=O)cnc2c(=O)[nH]1
inactive: dose: 12.5 mg/kg/injection, schedule: Q01DX009 (ip), vehicle: saline with Tween-80 107 % of control | [12] 107 % of control | [7] 108 % of control | dose: 50.0 mg/kg/injection, schedule: Q01DX009 (ip), vehicle: suspension in saline 106 % of control | dose: 100.0 mg/kg/injection, schedule: Q01DX009 (ip), vehicle: suspension in saline 91 % of control | dose: 200.0 mg/kg/injection, schedule: Q01DX009 (ip), vehicle: suspension in saline 107 % of control | dose: 300.0 mg/kg/injection, schedule: Q01DX009 (ip), vehicle: saline 91 % of control

CCCCCCCCCCCCCCCCc1c(C)nc(N(C)C)oc1=O
inactive: [9] 103 % of control | [10] 97 % of control | [11] 98 % of control and 100 % of control

CN(C)c1nc(N)nc(Nc2ccc(Br)cc2)c1N=O
inactive: [12] 100 % of control | [7] 91 % of control | [5] 113 % of control | [8] 100 % of control | [13] 108 % of control | [6] 109 % of control | [14] 95 % of control | dose: 400.0 mg/kg/injection, schedule: Q01DX009 (ip), vehicle: Klucel (hydroxypropylcellulose) (HPC) 95 % of control | [15] 95 % of control

CSC(/C=C1\C=CC=CN1Cc1ccccc1)=NC#N
inactive: dose: 25.0 mg/kg/injection, schedule: Q04DX002 (ip), vehicle: saline with Tween-80 100 % of control | dose: 50.0 mg/kg/injection, schedule: Q04DX002 (ip), vehicle: saline with Tween-80 92 % of control | [16] 99 % of control

COCCOCOC(C)(C)CCCCl
inactive: [9] 106 % of control | [10] 101 % of control | [11] 100 % of control

NC(CC1=CS(=O)(=O)c2ccc(Cl)cc21)C(=O)O (stereo unspecified)
inactive: dose: 25.0 mg/kg/injection, schedule: Q01DX001 (ip), vehicle: Klucel (hydroxypropylcellulose) (HPC) 99 % of control | dose: 50.0 mg/kg/injection, schedule: Q01DX001 (ip), vehicle: Klucel (hydroxypropylcellulose) (HPC) 96 % of control | dose: 100.0 mg/kg/injection, schedule: Q01DX001 (ip), vehicle: Klucel (hydroxypropylcellulose) (HPC) 101 % of control

CSc1nccc(=O)n1-c1ccc(C)cc1
inactive: [16] 102 % of control | dose: 200.0 mg/kg/injection, schedule: Q04DX002 (ip), vehicle: saline with Tween-80 102 % of control | dose: 400.0 mg/kg/injection, schedule: Q04DX002 (ip), vehicle: saline with Tween-80 98 % of control

O=c1ccc2cc3ccoc3c(OCCOCCOCCOCCOc3c4occc4cc4ccc(=O)oc34)c2o1
inactive: [2] 92 % of control | [3] 91 % of control | [4] 91 % of control

COc1ccc(C(=O)CCN(C)C)c(OC)c1
inactive: dose: 15.0 mg/kg/injection, schedule: Q01DX005 (ip), vehicle: saline 102 % of control | dose: 30.0 mg/kg/injection, schedule: Q01DX005 (ip), vehicle: saline 94 % of control | [1] 106 % of control and 109 % of control

Oc1ccc2ccccc2c1-c1c(OC(c2ccccc2)c2ccccc2)ccc2ccccc12
inactive: [13] 102 % of control | [14] 94 % of control | [15] 102 % of control
